# Measurements published in US6340689B1 (priority 1999, dated 2002).
# Legend:
# [1] = system: L. pneumophila serogroup 1; assay: microbe, parasite or virus in culture; format: cell-based, Legionella pneumophila; conditions: Legionella pneumophila; for MIC: 48 h, read-out: MIC Range; for MIC90: L. pneumophila serogroup 1 (n = 85)
# [2] = system: L. pneumophila serogroup 2; assay: microbe, parasite or virus in culture; format: cell-based; conditions: Legionella pneumophila; for MIC: 48 h, read-out: MIC Range
# [3] = system: L. pneumophila serogroup 3; assay: microbe, parasite or virus in culture; format: cell-based; conditions: Legionella pneumophila; for MIC: 48 h, read-out: MIC Range
# [4] = system: L. pneumophila serogroup 4; assay: microbe, parasite or virus in culture; format: cell-based; conditions: Legionella pneumophila; for MIC: 48 h, read-out: MIC Range
# [5] = system: L. pneumophila serogroup 5; assay: microbe, parasite or virus in culture; format: cell-based; conditions: Legionella pneumophila; for MIC: 48 h, read-out: MIC Range
# [6] = system: L. pneumophila serogroup 6; assay: microbe, parasite or virus in culture; format: cell-based; conditions: Legionella pneumophila; for MIC: 48 h, read-out: MIC Range
# [7] = system: L. pneumophila serogroup 7; assay: microbe, parasite or virus in culture; format: cell-based; conditions: Legionella pneumophila; for MIC: 48 h, read-out: MIC Range
# [8] = system: L. pneumophila serogroup 8, 9; assay: microbe, parasite or virus in culture; format: cell-based; conditions: Legionella pneumophila; for MIC: 48 h, read-out: MIC Range
# L. dumoffii = assay: organism not typed; format: cell-based; conditions: for MIC: 48 h, read-out: MIC Range
# L. micadadei = assay: organism not typed; format: cell-based, L. micdadei; conditions: for MIC: 48 h, read-out: MIC Range
# L. longbeacheae = assay: organism not typed; format: cell-based; conditions: for MIC: 48 h, read-out: MIC Range
# Other Legionella spp. = assay: microbe, parasite or virus in culture; format: cell-based; conditions: for MIC: 48 h, read-out: MIC Range
# [9] = system: Erythromycin-susceptible L. pneumophila; format: cell-based, Legionella pneumophila; conditions: Erythromycin-susceptible L. pneumophila (n = 15); 4 × MIC; mean ± SD
# [10] = system: Erythromycin-susceptible Legionella spp. other than L. pneumophila; format: cell-based; conditions: Erythromycin-susceptible Legionella spp. (n = 13); 4 × MIC; mean ± SD
# [11] = system: isolates of Legionella pneumophila and other Legionella spp.; assay: microbe, parasite or virus in culture; format: cell-based
SMILES,MIC50 [1] [µg/mL],MIC [1] [µg/mL],MIC90 [1] [µg/mL],MIC50 [2] [µg/mL],MIC90 [2] [µg/mL],MIC [2] [µg/mL],MIC50 [3] [µg/mL],MIC90 [3] [µg/mL],MIC [3] [µg/mL],MIC50 [4] [µg/mL],MIC90 [4] [µg/mL],MIC [4] [µg/mL],MIC50 [5] [µg/mL],MIC90 [5] [µg/mL],MIC50 [6] [µg/mL],MIC90 [6] [µg/mL],MIC [6] [µg/mL],MIC50 [7] [µg/mL],MIC90 [7] [µg/mL],MIC [7] [µg/mL],other results
Cc1c(F)c(N2CCNC(C)C2)cc2c1c(=O)c(C(=O)O)cn2C1CC1 (stereo not drawn) [Grepafloxacin],0.016,0.004 to 0.06,0.016,0.008,0.016,0.004 to 0.03,0.008,0.016,0.004 to 0.016,0.008,0.016,0.008 to 0.016,0.016,0.03,0.008,0.016,0.004 to 0.016,≤ 0.004,0.008,0.004 to 0.008,MIC50 [8]: 0.008 µg/mL; MIC90 [8]: 0.008 µg/mL; MIC [8]: 0.008 µg/mL; MIC50 (L. dumoffii): 0.06 µg/mL; MIC90 (L. dumoffii): 0.06 µg/mL; MIC (L. dumoffii): 0.06 µg/mL; MIC50 (L. micadadei): 0.008 µg/mL; MIC90 (L. micadadei): 0.016 µg/mL; MIC (L. micadadei): 0.004 to 0.016 µg/mL; MIC50 (L. longbeacheae): 0.03 µg/mL; MIC90 (L. longbeacheae): 0.06 µg/mL; MIC (L. longbeacheae): 0.004 to 0.06 µg/mL; MIC50 (Other Legionella spp.): 0.03 µg/mL; MIC90 (Other Legionella spp.): 0.03 µg/mL; MIC (Other Legionella spp.): 0.004 to 0.03 µg/mL; Mean PAE [9]: 2.62 ± 3 h; Mean PAE [10]: 1.67 ± 1 h; MIC90 [11]: 0.016 µg/mL
CO[C@H]1/C=C/O[C@@]2(C)Oc3c(C)c(O)c4c(O)c(c(/C=N/N5CCN(C)CC5)c(O)c4c3C2=O)NC(=O)/C(C)=C\C=C\[C@H](C)[C@H](O)[C@@H](C)[C@@H](O)[C@@H](C)[C@H](OC(C)=O)[C@@H]1C [Rifampicin],≤ 0.004,0.004 to 0.008,0.008,≤ 0.004,≤ 0.004,≤ 0.004,≤ 0.004,≤ 0.004,≤ 0.004,≤ 0.004,≤ 0.004,0.004 to 0.008,≤ 0.004,≤ 0.004,≤ 0.004,≤ 0.004,0.004 to 0.008,≤ 0.004,≤ 0.004,≤ 0.004,MIC [5]: ≤ 0.004 µg/mL; MIC50 [8]: ≤ 0.004 µg/mL; MIC90 [8]: ≤ 0.004 µg/mL; MIC [8]: ≤ 0.004 µg/mL; MIC50 (L. dumoffii): 0.008 µg/mL; MIC90 (L. dumoffii): 0.016 µg/mL; MIC (L. dumoffii): 0.004 to 0.03 µg/mL; MIC50 (L. micadadei): 0.008 µg/mL; MIC90 (L. micadadei): 0.008 µg/mL; MIC (L. micadadei): 0.008 µg/mL; MIC50 (L. longbeacheae): ≤ 0.004 µg/mL; MIC90 (L. longbeacheae): 0.06 µg/mL; MIC (L. longbeacheae): 0.004 to 0.06 µg/mL; MIC50 (Other Legionella spp.): ≤ 0.004 µg/mL; MIC90 (Other Legionella spp.): 0.008 µg/mL; MIC (Other Legionella spp.): 0.004 to 0.008 µg/mL; Mean PAE [9]: 2.86 ± 5 h; Mean PAE [10]: 3.09 ± 4 h; MIC90 [11]: ≤ 0.008 µg/mL
CC1COc2c(N3CCN(C)CC3)c(F)cc3c(=O)c(C(=O)O)cn1c23 (stereo not drawn) [Ofloxacin],0.03,0.008 to 0.03,0.03,0.016,0.03,0.008 to 0.03,0.016,0.03,0.016 to 0.03,0.03,0.03,0.008 to 0.03,0.016,0.03,0.03,0.03,0.008 to 0.03,0.03,0.03,0.03,MIC [5]: 0.008 to 0.03 µg/mL; MIC50 [8]: 0.03 µg/mL; MIC90 [8]: 0.03 µg/mL; MIC [8]: 0.03 µg/mL; MIC50 (L. dumoffii): 0.03 µg/mL; MIC90 (L. dumoffii): 0.03 µg/mL; MIC (L. dumoffii): 0.03 µg/mL; MIC50 (L. micadadei): 0.03 µg/mL; MIC90 (L. micadadei): 0.03 µg/mL; MICs fold more active than erythromycin (L. micadadei): 5 fold; MIC (L. micadadei): 0.03 µg/mL; MIC50 (L. longbeacheae): 0.03 µg/mL; MIC90 (L. longbeacheae): 0.03 µg/mL; MIC (L. longbeacheae): 0.016 to 0.03 µg/mL; MIC50 (Other Legionella spp.): 0.016 µg/mL; MIC90 (Other Legionella spp.): 0.06 µg/mL; MIC (Other Legionella spp.): 0.004 to 0.06 µg/mL; Mean PAE [9]: 3.53 ± 3 h; Mean PAE [10]: 3.04 ± 2 h; MIC90 [11]: 0.03 µg/mL
CC[C@H]1OC(=O)[C@H](C)[C@@H](O[C@H]2C[C@@](C)(OC)[C@@H](O)[C@H](C)O2)[C@H](C)[C@@H](O[C@@H]2O[C@H](C)C[C@H](N(C)C)[C@H]2O)[C@](C)(O)C[C@@H](C)C(=O)[C@H](C)[C@@H](O)[C@]1(C)O [Erythromycin],0.25,0.03 to 1,1,0.25,0.25,0.008 to 0.5,0.25,0.5,0.06 to 0.5,0.5,0.5,0.016 to 0.5,0.25,0.5,0.12,0.25,0.008 to 0.25,0.12,0.5,0.12 to 0.5,MIC [5]: 0.06 to 1 µg/mL; MIC50 [8]: 0.25 µg/mL; MIC90 [8]: 0.25 µg/mL; MIC [8]: 0.25 µg/mL; MIC50 (L. dumoffii): 0.25 µg/mL; MIC90 (L. dumoffii): 0.5 µg/mL; MIC (L. dumoffii): 0.25 to 0.5 µg/mL; MIC50 (L. micadadei): 0.5 µg/mL; MIC90 (L. micadadei): 1 µg/mL; MIC (L. micadadei): 0.25 to 1 µg/mL; MIC50 (L. longbeacheae): 0.25 µg/mL; MIC90 (L. longbeacheae): 0.5 µg/mL; MIC (L. longbeacheae): 0.008 to 0.5 µg/mL; MIC50 (Other Legionella spp.): 0.5 µg/mL; MIC90 (Other Legionella spp.): 1 µg/mL; MIC (Other Legionella spp.): 0.016 to 1 µg/mL; Mean PAE [9]: 0.93 ± 1 h; Mean PAE [10]: 2.06 ± 2 h
CC[C@H]1OC(=O)[C@H](C)[C@@H](O[C@H]2C[C@@](C)(OC)[C@@H](O)[C@H](C)O2)[C@H](C)[C@@H](O[C@@H]2O[C@H](C)C[C@H](N(C)C)[C@H]2O)[C@](C)(O)C[C@@H](C)CN(C)[C@H](C)[C@@H](O)[C@]1(C)O [Azithromycin],0.06,0.008 to 1,0.5,0.06,0.12,0.008 to 0.12,0.12,0.25,0.016 to 0.25,0.12,0.12,0.008 to 0.25,0.03,0.25,0.06,0.12,0.016 to 0.25,0.06,0.06,0.06,MIC [5]: 0.008 to 0.5 µg/mL; MIC50 [8]: 0.06 µg/mL; MIC90 [8]: 0.06 µg/mL; MIC [8]: 0.06 µg/mL; MIC50 (L. dumoffii): 0.12 µg/mL; MIC90 (L. dumoffii): 0.25 µg/mL; MIC (L. dumoffii): 0.12 to 0.25 µg/mL; MIC50 (L. micadadei): 0.25 µg/mL; MIC90 (L. micadadei): 0.25 µg/mL; MIC (L. micadadei): 0.016 to 0.25 µg/mL; MIC50 (L. longbeacheae): 0.12 µg/mL; MIC90 (L. longbeacheae): 0.25 µg/mL; MIC (L. longbeacheae): 0.016 to 0.25 µg/mL; MIC50 (Other Legionella spp.): 0.12 µg/mL; MIC90 (Other Legionella spp.): 0.5 µg/mL; MIC (Other Legionella spp.): 0.016 to 0.5 µg/mL; Mean PAE [9]: 2.91 ± 3 h; Mean PAE [10]: 1.86 ± 2 h
CC[C@H]1OC(=O)[C@H](C)[C@@H](O[C@H]2C[C@@](C)(OC)[C@@H](O)[C@H](C)O2)[C@H](C)[C@@H](O[C@@H]2O[C@H](C)C[C@H](N(C)C)[C@H]2O)[C@](C)(OC)C[C@@H](C)C(=O)[C@H](C)[C@@H](O)[C@]1(C)O [Clarithromycin],0.06,0.004 to 0.12,0.06,0.03,0.06,0.004 to 0.06,0.03,0.06,0.016 to 0.06,0.03,0.06,0.004 to 0.06,0.03,0.06,0.016,0.06,0.004 to 0.06,0.016,0.06,0.016 to 0.06,MIC [5]: 0.03 to 0.06 µg/mL; MIC50 [8]: 0.06 µg/mL; MIC90 [8]: 0.06 µg/mL; MIC [8]: 0.06 µg/mL; MIC50 (L. dumoffii): 0.03 µg/mL; MIC90 (L. dumoffii): 0.06 µg/mL; MIC (L. dumoffii): 0.03 to 0.06 µg/mL; MIC50 (L. micadadei): 0.06 µg/mL; MIC90 (L. micadadei): 0.06 µg/mL; MIC (L. micadadei): 0.03 to 0.12 µg/mL; MIC50 (L. longbeacheae): 0.06 µg/mL; MIC90 (L. longbeacheae): 0.06 µg/mL; MIC (L. longbeacheae): 0.008 to 0.06 µg/mL; MIC50 (Other Legionella spp.): 0.03 µg/mL; MIC90 (Other Legionella spp.): 0.12 µg/mL; MIC (Other Legionella spp.): 0.004 to 0.12 µg/mL; Mean PAE [9]: 0.72 ± 2 h; Mean PAE [10]: 0.98 ± 2 h
